Where a name gives a salt, the structure may show the parent alone.
What was measured:
[1] = tested on: urinary risk of forming calcium kidney stones; experiment: Urinary risk of forming calcium kidney stones, study on 74 individuals with oxalocalcium kidney stones; format: in vivo, human; details: for drop of the risk of forming calcium stones: 15 days after treatment start, citrate 6.48 g/day, phytate 120 mg/day, individuals with oxalocalcium kidney stones
Procedure: These individuals have been divided into three groups: 19 individuals with kidney stones (Group I), 38 individuals with kidney stones (Group II) and 17 individuals with kidney stones (Group III). The urinary risk to form calcium kidney stones was evaluated for each individual before being subjected to any pharmacological treatment.
15 days after treatment starting, the urinary risk of forming calcium kidney stones was evaluated again for each individual.

[2] = cited from earlier work
[3] = Urinary excretion of phytate after dietary intake; format: in vivo

Structure (SMILES)	drop of the risk of forming calcium stones [1]	effect on bioavailability of oligoelements such as Zn(II) and Fe(III) ([2]; doses in which maximum excretions are produced)	toxicity ([2]; megadose of 8.8 g/day)	effect on urine pH ([1]; treatment of calcium kidney stones, compared with citrate)	maximum urinary excretion as share of the total intake ([3]; diet supplemented with products rich in phytates)	intake above which the excreted amount in urine does not increase ([3]; urinary excretion, dose-dependent up to this intake)
O=C(O)CC(O)(CC(=O)O)C(=O)O [citrate, potassium citrate, reference compound]	52%					
O=P(O)(O)O[C@H]1[C@H](OP(=O)(O)O)[C@@H](OP(=O)(O)O)[C@H](OP(=O)(O)O)[C@@H](OP(=O)(O)O)[C@H]1OP(=O)(O)O [phytate, inositol hexaphosphate]	50%	do not affect the bioavailability	does not produce any toxicity	does not cause increases of the urine pH	1-5%	20.9 mg/kg of body weight
